Tested on: MDA-MB-231 tumors
Assay: EC17 dose finding and CRS assessment in MDA-MB-231 tumor-bearing mice
Format: in vivo
Conditions: for human IFNγ in mouse plasma, fold over CAR-T cells only: all EC17 treated tumor cohorts
Method: All animal care and use were performed according to NIH guidelines and in compliance with protocols approved by the Purdue University Animal Use and Care Committee. Female 4 to 5-week-old NOD/SCID gamma (NSG™) mice (stock number:005557) were purchased from The Jackson Faboratory (Bar Harbor, ME). Unless specifically indicated, all animals were maintained on a FA-deficient diet (TestDiet, St. Fouis, MO) upon arrival and throughout the study. To establish subcutaneous xenografts, MDA-MB-231 and HOS-FRα were implanted in the right flank region at 2.5×10^6 and 1×10^6 cells per animal, respectively. For intravenous xenografts, THP1-FRβ) cells were inoculated at 5×10^6 cells per animal. Subcutaneous tumors were measured 2-3 times per week with a caliper and calculated using the ellipsoidal formula (length×width2)/2. […] All animal doses (CAR-T cells, EC17, sodium fluorescein) were given intravenously.
In a therapeutic setting, EC17 CAM can be given before or after CAR-T cell injection. As described herein, the first dose of EC17 was administered 2-3.5 days after CAR-T cells to allow for an observation period of human T cells in tumor-bearing mice. Two batches of unsorted E2-CAR-T cells (23% or 39% EGFRt+, 1:1 CD4/CD8) were used for in vivo studies. On the day of infusion for each experiment (day 0), frozen CAR-T cells were quickly thawed at 37° C., washed 2× with Dulbecco's IX PBS (pH 7.4) and injected into the tail vein at desired EGFRt+E2-CAR-T cell doses. In addition, a small aliquot of CAR-T cells was analyzed by flow cytometry for CD4 to CD 8 ratio and differentiation status of CAR-T cells. On the first day of EC17 dose, tumor-bearing animals were randomly assigned into groups according to their tumor sizes or the same number of days post intravenous implantation (i.e., THP1-FRβ).
For MDA-MB-231 studies, mice received a high dose (~10 million) of a “clinical facsimile” of E2-CAR-T cells (~39% EGFRt+) with a low differentiation profile (FIG. 9). Two days later, 3 different treatment regimens of EC17 were started at an average tumor size of −293±39 mm^3 (FIG. 12). The EC17 dosing was given once-a-week (SIW) at 500 nmol/kg on Mondays, or as escalating doses of 5, 50 or 100, and 500 or 1000 nmol/kg (i.e., 5/50/500 or 5/100/1000) on Monday, Thursday, and Monday with a 6-day break in-between cycles. Control mice were left untreated (received CAR-T cells but no EC17). For comparison, a cohort of tumor-free littermates also received the same number of CAR-T cells without or with EC17 SIW at 500 nmol/kg.
The initial EC17 dose finding studies were conducted in MDA-MB-231 tumor bearing mice as shown by the schematic diagram of the experimental layout (FIG. 12, panel A). NSG mice without or with MDA-MB-231 tumors (~211±65 mm3) were engrafted on day 0 with −10 million of a “clinical facsimile” batch of E2-CAR-T cells (−39% EGFRt+, 51:49 CD4/CD8). This batch of CAR-T cells consisted of mostly TSCM and TCM phenotypes (see FIG. 9). Two days after the CAR-T cell injection, one cohort of tumor-bearing mice were left untreated while three cohorts were treated with different regimens of EC17, including single injection per week (SIW) at 500 nmol/kg, or as escalating EC17 dose levels of 5/50/500 (Escalation-1) or 5/100/1000 nmol/kg (Escalation-2) given on a Monday/Thursday/Monday schedule with 1-week drug-free intervals. For comparison, two tumor-free cohorts were either untreated or treated with EC17 SIW at 500 nmol/kg.

[1] = ~10 million CAR-T cells, continued EC17 dosing independent of the regimen

NC1=NC2N=CC(CNc3ccc(C(=O)N[C@@H](CCC(=O)NCCNC(=S)Nc4ccc(-c5c6ccc(=O)cc-6oc6cc(O)ccc56)c(C(=O)O)c4)C(=O)O)cc3)=NC2C(=O)N1 (stereo partly drawn) [EC17, FA-(γ)-ethylenediamine-FITC]
cures (EC17-treated cohorts): 100% | body weight loss (EC17 Escalation-2 regimen 5/100/1000 nmol/kg): persistent body weight loss | onset of CRS and body weight loss (EC17 SIW at 500 nmol/kg): earliest onset of CRS and body weight loss | human IFNγ in mouse plasma, fold over CAR-T cells only (day 11 (~20 hours after previous EC17 dose)): ~ 30 × | human IFNγ in mouse plasma, fold over CAR-T cells only (day 12 (~42 hours after previous EC17 dose)): ~ 10 × | EC17 dose triggering severe CRS (grade≥3) (in combination with a high CAR-T cell dose): ≥ 500 nmol/kg | persistence of CAR-T cells in mouse blood (tumor-bearing animals, last measurement): up to 54 days | CRS symptoms (grades) [1]: 2-3 | body weight loss [1]: significant body weight losses

— patent publication US20260263517A1, “THERAPEUTIC METHODS WITH TARGET-LINKED SMALL MOLECULES AND ANTI-TARGET CAR T CELLS” (Seattle Children's Hospital (dba Seattle Children's …, priority 2022, published 2026)
